Activity calls are given as the source filed them.
What was measured:
[1] = biological target: T1, Probable nicotinate-nucleotide adenylyltransferase (Staphylococcus aureus (strain N315), UniProt P65502); type: functional, Staphylococcus aureus subsp. aureus N315;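 as to IC50 Mean: confirmatory dose-response retesting of NadD inhibitor hits first found in an ultra-high-throughput screen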
[2] = biological target: Beta-lactamase (Salmonella choleraesuis (strain SC-B67), UniProt Q5J463); assay: Epi-absorbance-based counterscreen for selective VIM-2 inhibitors: dose response biochemical high throughput screening assay to identify inhibitors of TEM-1 serine-beta-lactamase.
Chain of Beta-lactamase (Salmonella choleraesuis (strain SC-B67), UniProt Q5J463) (Q5J463 whole entry): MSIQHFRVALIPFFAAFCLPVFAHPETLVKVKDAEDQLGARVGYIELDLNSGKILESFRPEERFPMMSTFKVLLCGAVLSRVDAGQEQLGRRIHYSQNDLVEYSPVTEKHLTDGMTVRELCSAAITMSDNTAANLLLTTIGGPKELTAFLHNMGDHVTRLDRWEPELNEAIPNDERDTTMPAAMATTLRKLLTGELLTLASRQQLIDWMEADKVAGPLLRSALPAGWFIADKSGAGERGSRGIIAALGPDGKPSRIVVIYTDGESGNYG

[3] = biological target: T2, Beta-lactamase (Pseudomonas aeruginosa, UniProt Q79MP6); assay: inhibition of IMP-1 beta-lactamase activity – biochemical, epi-absorbance, selectivity assay for VIM-2 inhibitor project, dose response (AID 1920)
T2 sequence (Q79MP6 whole entry): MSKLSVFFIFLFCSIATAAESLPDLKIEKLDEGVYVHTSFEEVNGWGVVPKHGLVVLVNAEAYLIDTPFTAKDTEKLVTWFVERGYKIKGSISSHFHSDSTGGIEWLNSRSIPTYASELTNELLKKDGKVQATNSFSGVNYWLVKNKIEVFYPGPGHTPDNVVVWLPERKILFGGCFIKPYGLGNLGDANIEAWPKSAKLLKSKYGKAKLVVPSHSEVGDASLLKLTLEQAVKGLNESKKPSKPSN

[4] = biological target: T3, Leucine aminopeptidase (Plasmodium falciparum 3D7, UniProt Q8IL11); assay: P. falciparum M17LAP inhibitors, primary screen, biochemical, fluorogenic H-Leu-NHMec substrate, 1536-well (AID 1619); type: functional
T3 sequence (Q8IL11 whole entry): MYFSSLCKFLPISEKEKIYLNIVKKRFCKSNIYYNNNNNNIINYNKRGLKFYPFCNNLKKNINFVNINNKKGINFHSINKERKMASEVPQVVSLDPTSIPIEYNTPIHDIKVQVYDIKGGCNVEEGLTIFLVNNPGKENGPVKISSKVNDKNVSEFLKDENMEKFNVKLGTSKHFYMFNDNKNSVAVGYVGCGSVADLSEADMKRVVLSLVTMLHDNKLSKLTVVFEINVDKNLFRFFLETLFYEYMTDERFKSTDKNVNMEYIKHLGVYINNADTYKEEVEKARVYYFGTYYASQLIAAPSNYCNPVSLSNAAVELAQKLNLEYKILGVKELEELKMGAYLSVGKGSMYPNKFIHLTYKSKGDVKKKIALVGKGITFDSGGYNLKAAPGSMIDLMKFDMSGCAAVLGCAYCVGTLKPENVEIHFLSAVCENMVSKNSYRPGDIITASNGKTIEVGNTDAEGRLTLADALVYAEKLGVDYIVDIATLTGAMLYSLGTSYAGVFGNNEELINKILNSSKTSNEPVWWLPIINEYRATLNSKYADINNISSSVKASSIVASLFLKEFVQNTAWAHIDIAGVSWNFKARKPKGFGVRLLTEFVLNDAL

[5] = biological target: T4, Beta Lactamase (Pseudomonas aeruginosa, UniProt Q932Y6); assay: VIM-2 CCF2 hydrolysis inhibition, assay artifact filter – biochemical, FRET readout, CCF2 substrate, artefact control for selective VIM-2 inhibitor project, dose response (AID 1926)
T4 sequence (Q932Y6 whole entry): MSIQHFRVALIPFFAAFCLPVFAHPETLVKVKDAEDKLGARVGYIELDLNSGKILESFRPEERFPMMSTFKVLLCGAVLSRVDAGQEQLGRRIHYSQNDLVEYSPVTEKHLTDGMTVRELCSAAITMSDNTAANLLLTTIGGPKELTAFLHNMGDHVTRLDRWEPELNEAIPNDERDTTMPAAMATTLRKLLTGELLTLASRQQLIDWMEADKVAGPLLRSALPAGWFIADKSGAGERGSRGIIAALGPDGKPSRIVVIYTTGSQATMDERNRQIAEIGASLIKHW

[6] = biological target: T2, Beta-lactamase; assay: […] counterscreen for selective VIM-2 inhibitors: dose response biochemical high throughput screening assay to identify inhibitors of IMP-1 metallo-beta-lactamase.
[7] = biological target: T4, Beta Lactamase; assay: concentration-dependent VIM-2 enzyme inhibition – biochemical, epi-absorbance readout, selective inhibitors, dose response (AID 1919)
[8] = biological target: T1, Probable nicotinate-nucleotide adenylyltransferase; type: functional, Staphylococcus aureus subsp. aureus N315; settings: read-out: IC50_Mean
[9] = biological target: T5, Small ubiquitin-related modifier 1 (Homo sapiens, UniProt P63165); assay: SUMO1 protein-protein binding blockers, potency – biochemical, FRET, dose response (AID 624383); type: functional; settings: read-out: IC50_Mean
T5 sequence (P63165 whole entry, the tested form may be a part): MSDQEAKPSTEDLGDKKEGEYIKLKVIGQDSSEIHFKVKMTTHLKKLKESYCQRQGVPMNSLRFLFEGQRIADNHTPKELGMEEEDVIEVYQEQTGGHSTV

[10] = biological target: T6, Carboxy-terminal domain RNA polymerase II polypeptide A small phosphatase 1 (Homo sapiens, UniProt Q9GZU7); assay: CTDSP1 inhibitors, concentration-response, biochemical, absorbance readout, ultra-high-throughput screen actives (AID 540297); type: functional
T6 sequence (Q9GZU7 whole entry): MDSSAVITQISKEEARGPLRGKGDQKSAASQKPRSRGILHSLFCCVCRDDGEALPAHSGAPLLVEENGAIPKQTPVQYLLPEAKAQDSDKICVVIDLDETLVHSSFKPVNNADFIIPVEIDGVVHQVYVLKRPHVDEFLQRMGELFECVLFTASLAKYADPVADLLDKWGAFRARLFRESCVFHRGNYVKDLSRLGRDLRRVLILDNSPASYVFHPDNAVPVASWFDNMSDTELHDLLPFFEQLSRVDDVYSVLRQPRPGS

[11] = biological target: T5, Small ubiquitin-related modifier 1; assay: SUMO1 protein interaction blockers, potency – biochemical, fluorescence polarization, uHTS hits, dose response (AID 624382); type: functional; settings: read-out: IC50_Mean
[12] = biological target: Melanocortin receptor 4 (Homo sapiens, UniProt P32245); assay: inhibitors of MC4R cAMP signaling – cell-based, TR-FRET, biased antagonists, dose response (AID 602298); type: functional;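 also: antagonist potency against agonist-stimulated cAMP production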
Chain of Melanocortin receptor 4 (P32245 whole entry): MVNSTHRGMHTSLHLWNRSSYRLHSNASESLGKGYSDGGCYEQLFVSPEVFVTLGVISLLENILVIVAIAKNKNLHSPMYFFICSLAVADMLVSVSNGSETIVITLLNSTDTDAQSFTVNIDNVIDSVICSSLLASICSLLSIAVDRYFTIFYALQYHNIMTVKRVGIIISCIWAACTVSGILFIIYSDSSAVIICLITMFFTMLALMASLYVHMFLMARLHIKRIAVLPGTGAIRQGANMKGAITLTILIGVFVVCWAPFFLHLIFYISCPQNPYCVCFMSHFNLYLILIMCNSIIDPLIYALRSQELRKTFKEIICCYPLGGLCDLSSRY

[13] = cAMP pathway inhibition in counterscreen cell line – TR-FRET cAMP detection, counter-screen for MC4R biased antagonist project, dose response (AID 602305); type: functional, cell-based;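 also: U2OS cells stimulated with forskolin near its EC80 as the cAMP inducer; potency is for inhibition of forskolin-stimulated cAMP signaling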
[14] = biological target: ATP-dependent molecular chaperone HSP82 (Candida albicans (strain WO-1) (Yeast), UniProt C4YTQ8); assay: steroid-induced GRE reporter decrease in yeast – S. cerevisiae, luminescence, Hsp90 inhibitor project, dose response (AID 2400); type: functional, cell-based;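 also: beta-galactosidase luminescence from glucocorticoid response element reporter as proxy for Hsp90 function; inhibitor potency where signal loss means Hsp90 inhibition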
Chain of ATP-dependent molecular chaperone HSP82 (C4YTQ8 whole entry): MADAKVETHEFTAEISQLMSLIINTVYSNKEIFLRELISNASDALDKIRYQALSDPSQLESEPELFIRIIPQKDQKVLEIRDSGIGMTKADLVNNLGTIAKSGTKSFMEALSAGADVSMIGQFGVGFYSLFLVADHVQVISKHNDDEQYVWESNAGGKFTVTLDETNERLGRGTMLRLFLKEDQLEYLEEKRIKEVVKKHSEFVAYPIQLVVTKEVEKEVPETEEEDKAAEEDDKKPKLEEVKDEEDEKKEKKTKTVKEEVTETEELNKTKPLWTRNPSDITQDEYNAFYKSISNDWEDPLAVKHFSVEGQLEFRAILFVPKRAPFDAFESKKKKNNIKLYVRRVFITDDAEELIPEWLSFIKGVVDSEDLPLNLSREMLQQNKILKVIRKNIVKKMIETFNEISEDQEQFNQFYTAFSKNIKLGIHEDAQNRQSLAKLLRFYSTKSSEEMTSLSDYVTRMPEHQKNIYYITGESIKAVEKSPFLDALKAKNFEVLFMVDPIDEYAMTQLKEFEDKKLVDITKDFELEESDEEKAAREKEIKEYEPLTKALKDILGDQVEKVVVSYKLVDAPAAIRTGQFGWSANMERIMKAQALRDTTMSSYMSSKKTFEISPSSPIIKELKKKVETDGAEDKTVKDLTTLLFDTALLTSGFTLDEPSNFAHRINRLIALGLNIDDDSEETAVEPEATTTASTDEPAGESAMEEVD

[15] = biological target: Serine/threonine-protein phosphatase (Candida dubliniensis (strain CD36 / CBS 7987 / NCPF 3949 / NRRLY-17841) (Yeast), UniProt B9W6M3); assay: blockers of CaCl2-induced CDRE-lacZ signaling – S. cerevisiae, luminescence, secondary, dose response (AID 2388); type: functional, cell-based;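 also: yeast reporter cells carrying a calcineurin-responsive lacZ construct stimulated with calcium chloride; luminescent beta-galactosidase reporter signal in whole cells rather than isolated phosphatase activity; potency for inhibition where a drop in reporter signal means calcineurin blockade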
Chain of Serine/threonine-protein phosphatase (B9W6M3 whole entry): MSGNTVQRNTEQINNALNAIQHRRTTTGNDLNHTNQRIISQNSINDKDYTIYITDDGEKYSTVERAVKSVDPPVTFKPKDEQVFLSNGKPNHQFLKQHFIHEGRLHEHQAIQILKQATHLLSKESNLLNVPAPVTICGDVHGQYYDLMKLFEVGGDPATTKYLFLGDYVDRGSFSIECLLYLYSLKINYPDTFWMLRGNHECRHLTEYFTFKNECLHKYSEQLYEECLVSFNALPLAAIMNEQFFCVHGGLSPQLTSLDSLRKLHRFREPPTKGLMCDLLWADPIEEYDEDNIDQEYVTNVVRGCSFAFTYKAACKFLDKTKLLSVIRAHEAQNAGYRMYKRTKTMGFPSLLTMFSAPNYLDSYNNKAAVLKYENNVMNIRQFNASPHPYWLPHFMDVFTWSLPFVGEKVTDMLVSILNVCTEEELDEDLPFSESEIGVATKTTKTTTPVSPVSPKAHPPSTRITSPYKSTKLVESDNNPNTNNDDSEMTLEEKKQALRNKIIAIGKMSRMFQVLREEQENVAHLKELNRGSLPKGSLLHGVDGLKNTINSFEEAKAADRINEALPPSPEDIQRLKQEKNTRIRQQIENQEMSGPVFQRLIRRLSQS

[16] = biological target: T7, Streptokinase A (Streptococcus pyogenes serotype M1, UniProt P10520); assay: viability-normalized secreted streptokinase activity reduction – plasminogen activation absorbance, OD405, dose response (AID 1914); type: functional, Streptococcus pyogenes M1 GAS;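 also: secreted streptokinase activity via plasminogen activation per viability signal from cell pellet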
T7 sequence (P10520 whole entry): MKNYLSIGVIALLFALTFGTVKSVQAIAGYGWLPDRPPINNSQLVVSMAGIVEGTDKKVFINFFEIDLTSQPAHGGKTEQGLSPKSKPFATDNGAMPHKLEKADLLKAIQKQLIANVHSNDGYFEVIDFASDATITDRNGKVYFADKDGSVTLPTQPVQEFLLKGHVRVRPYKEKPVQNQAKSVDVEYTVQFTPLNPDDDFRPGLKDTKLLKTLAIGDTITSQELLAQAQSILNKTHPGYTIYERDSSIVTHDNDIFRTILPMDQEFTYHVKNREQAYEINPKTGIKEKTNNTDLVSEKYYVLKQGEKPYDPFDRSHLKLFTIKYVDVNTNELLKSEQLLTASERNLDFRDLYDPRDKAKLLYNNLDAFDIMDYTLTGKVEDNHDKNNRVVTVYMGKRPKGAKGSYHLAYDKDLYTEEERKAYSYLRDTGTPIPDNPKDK

[17] = bead-based luminescence quenchers, dual-tagged ARNT – biochemical, AlphaScreen, cherry-pick, artefact control for ARNT-TACC3 interaction inhibitor project, dose response (AID 651705); type: functional;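 also: AlphaScreen bead proximity signal that flags compounds interfering with the detection technology; potency reflects signal decrease which marks the compound as an assay artifact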
[18] = system: H9c2; assay: cells; type: functional, cell-based; settings: Rattus norvegicus, H9c2, Myocardium;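 also: confirmatory concentration-response retest of ultra-high-throughput screening hits for modulation of myocardial damage; cell death induced by hydrogen peroxide oxidative stress; compound pretreatment for 60 min then peroxide exposure for 2 h; potency is for protecting the cells against peroxide damage rather than for killing them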
[19] = biological target: ADP-ribosylation factor GTPase-activating protein 1 (Rattus norvegicus, UniProt Q62848); assay: Fluorescence polarization-based biochemical high throughput dose response screening assay to identify inhibitors of ADP-ribosylation factor GTPase activating protein 1 (ARFGAP1).; type: functional
Chain of ADP-ribosylation factor GTPase-activating protein 1 (Q62848 whole entry): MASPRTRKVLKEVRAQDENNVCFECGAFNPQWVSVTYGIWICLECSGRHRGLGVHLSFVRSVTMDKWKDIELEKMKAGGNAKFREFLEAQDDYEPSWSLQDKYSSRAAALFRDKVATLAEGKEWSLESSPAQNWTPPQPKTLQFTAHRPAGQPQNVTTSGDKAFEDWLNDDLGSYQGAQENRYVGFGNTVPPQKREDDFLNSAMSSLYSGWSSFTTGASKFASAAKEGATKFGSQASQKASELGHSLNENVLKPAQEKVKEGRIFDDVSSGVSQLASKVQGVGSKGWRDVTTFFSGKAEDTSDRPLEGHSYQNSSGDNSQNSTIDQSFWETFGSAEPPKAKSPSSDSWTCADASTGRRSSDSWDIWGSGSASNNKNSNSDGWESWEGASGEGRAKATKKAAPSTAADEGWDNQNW

[20] = nonselective StAR promoter luciferase inhibitors – cell-based, luminescence, luciferase reporter, counter-screen for LRH-1 inverse agonist project, dose response (AID 651969); type: functional
[21] = biological target: Nuclear receptor subfamily 5 group A member 2 (Homo sapiens, UniProt O00482); type: functional, cell-based;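 also: HEK293T cells transfected with LRH-1 and a StAR promoter luciferase reporter; potency for inhibitors that lower LRH-1 driven reporter light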
Chain of Nuclear receptor subfamily 5 group A member 2 (O00482 whole entry): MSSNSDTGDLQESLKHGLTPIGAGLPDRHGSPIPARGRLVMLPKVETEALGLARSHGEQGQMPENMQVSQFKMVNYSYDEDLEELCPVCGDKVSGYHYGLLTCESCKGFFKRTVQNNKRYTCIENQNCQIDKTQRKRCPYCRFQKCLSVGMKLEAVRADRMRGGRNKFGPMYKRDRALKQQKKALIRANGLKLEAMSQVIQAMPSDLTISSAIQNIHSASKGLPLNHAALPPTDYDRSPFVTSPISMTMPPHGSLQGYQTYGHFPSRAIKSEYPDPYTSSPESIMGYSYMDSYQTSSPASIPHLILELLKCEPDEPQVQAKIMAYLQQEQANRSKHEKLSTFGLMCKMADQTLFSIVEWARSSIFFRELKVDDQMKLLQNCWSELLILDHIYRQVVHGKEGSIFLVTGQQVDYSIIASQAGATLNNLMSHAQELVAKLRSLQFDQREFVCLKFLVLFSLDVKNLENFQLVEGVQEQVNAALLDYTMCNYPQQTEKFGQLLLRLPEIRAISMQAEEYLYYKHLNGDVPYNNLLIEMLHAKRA

[22] = biological target: Steroidogenic factor 1 (Homo sapiens, UniProt Q13285); assay: Counterscreen for inverse agonists of the liver receptor homolog-1 (LRH-1; NR5A2): Luminescence-based cell-based high throughput dose response assay to identify inverse agonists of the Steroidogenic Factor 1 Nuclear Receptor (SF1; NR5A1).; type: functional
Chain of Steroidogenic factor 1 (Q13285 whole entry): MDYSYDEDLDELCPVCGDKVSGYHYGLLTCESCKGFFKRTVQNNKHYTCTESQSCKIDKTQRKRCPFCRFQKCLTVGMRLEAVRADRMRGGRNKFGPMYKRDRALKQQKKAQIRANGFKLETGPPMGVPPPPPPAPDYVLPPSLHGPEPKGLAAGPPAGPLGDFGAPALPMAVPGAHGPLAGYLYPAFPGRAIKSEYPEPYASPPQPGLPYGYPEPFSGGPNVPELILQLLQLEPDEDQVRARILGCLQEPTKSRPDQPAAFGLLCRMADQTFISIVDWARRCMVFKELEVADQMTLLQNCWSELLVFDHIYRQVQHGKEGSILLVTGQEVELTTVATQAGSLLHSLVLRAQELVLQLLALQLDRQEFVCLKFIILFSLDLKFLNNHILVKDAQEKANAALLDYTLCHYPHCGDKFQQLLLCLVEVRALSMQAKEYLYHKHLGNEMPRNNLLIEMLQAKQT

T1 sequence (P65502 whole entry): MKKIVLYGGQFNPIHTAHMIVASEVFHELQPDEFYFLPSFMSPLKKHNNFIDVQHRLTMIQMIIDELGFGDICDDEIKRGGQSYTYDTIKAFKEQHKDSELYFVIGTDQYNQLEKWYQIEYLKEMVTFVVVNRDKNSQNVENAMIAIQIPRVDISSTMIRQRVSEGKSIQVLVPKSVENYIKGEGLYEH

Structure (SMILES): O=C(O)c1cccc(NC(=S)N/N=C/c2ccccc2OCc2ccc(Br)cc2)c1
- IC50 [1]: 3.73 µM (active)
- IC50 [2]: > 59.6 µM (inactive)
- IC50 [3]: > 59.6 µM (inactive)
- IC50 [4]: 13.3 µM (active)
- IC50 [5]: 0.885 µM (active)
- IC50 [6]: > 59.6 µM (inactive)
- IC50 [7]: 10 µM (inactive)
- IC50 [8]: 15.4 µM (active)

Structure (SMILES): CC(Cc1c[nH]c2ccccc12)C(=O)NCc1ccco1 (configuration not stated)
- IC50 [9]: 12.2 µM (active)
- IC50 [10]: 19.4 µM (active)
- IC50 [11]: > 66.6 µM (inactive)

Structure (SMILES): COC(=O)CSc1nnc(-c2ccc(S(=O)(=O)N3CCCCC3)cc2)o1
- IC50 [12]: > 64.6 µM (inactive)
- IC50 [13]: > 64.6 µM (inactive)

Structure (SMILES): O=C(c1cc(-c2ccccc2)n[nH]1)N1CCc2c([nH]c3ccccc23)C1c1ccccn1 (configuration not stated)
- EC50 [14]: 31.2 µM (active)
- EC50 [15]: > 180 µM (inactive)
- EC50 [16]: 26.3 µM (active)

Structure (SMILES): CCCn1nc(C(=O)Nc2nc(-c3ccccn3)cs2)c2ccccc2c1=O
- AC50 [17]: 81.7 µM (active)
- IC50 [18]: > 79 µM (inactive)

Structure (SMILES): O=C(Nc1nnc(-c2ccc3c(c2)OCCO3)o1)c1ccc(Cc2ccccc2)cc1
- IC50 [19]: 7.92 µM (active)

Structure (SMILES): Cc1no[n+]([O-])c1COc1ccc(/C=C2\NC(=S)NC2=O)cc1
- IC50 [20]: 35.9 µM (inactive)
- IC50 [21]: 0.578 µM (active)
- IC50 [22]: 1.34 µM (active)

Reference: ChEMBL document CHEMBL1201862, “PubChem BioAssay data set” (2004)
